# Test results taken from patent publication US12655116B2, “Substituted isophthalic acid diamides” (Bayer Aktiengesellschaft, priority 2020, dated 2026).
# Columns and labels:
# [1] = system: ABUTH; experiment: Pre-emergence herbicidal action against ABUTH; format: in vivo, Abutilon theophrasti
# Method in brief: (§1)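 Seeds sown in sandy loam, soil-covered; compound sprayed on soil surface pre-emergence. Application: WP/EC, 600–800 l/ha, 0.2% wetting agent. Readout: visual % damage at 3 weeks.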
# [2] = system: ALOMY; experiment: Pre-emergence herbicidal action against ALOMY; format: in vivo, Alopecurus myosuroides; conditions: pre-emergence
# Method in brief: as §1
# [3] = system: AMARE; experiment: Pre-emergence herbicidal action against AMARE; format: in vivo, Amaranthus retroflexus
# Method in brief: as §1
# [4] = system: AVEFA; experiment: Pre-emergence herbicidal action against AVEFA; format: in vivo, Avena fatua; conditions: 80 g/ha, pre-emergence
# Method in brief: as §1
# [5] = system: ECHCG; experiment: Pre-emergence herbicidal action against ECHCG; format: in vivo, Echinochloa crus-galli; conditions: 80 g/ha
# Method in brief: as §1
# [6] = system: MATIN; experiment: Pre-emergence herbicidal action against MATIN; format: in vivo, Matricaria inodora
# Method in brief: as §1
# [7] = system: PHBPU; experiment: Pre-emergence herbicidal action against PHBPU; format: in vivo, Pharbitis purpurea; conditions: dosage 80 g/ha
# Method in brief: as §1
# [8] = system: POLCO; experiment: Pre-emergence herbicidal action against POLCO; format: in vivo, Polygonum convolvulus
# Method in brief: as §1
# [9] = system: SETVI; experiment: Pre-emergence herbicidal action against SETVI; format: in vivo, Setaria viridis
# Method in brief: as §1
# [10] = system: VERPE; experiment: Pre-emergence herbicidal action against VERPE; format: in vivo, Veronica persica
# Method in brief: as §1
# [11] = system: VIOTR; experiment: Pre-emergence herbicidal action against VIOTR; format: in vivo, Viola tricolor
# Method in brief: as §1
# [12] = system: DIGSA; experiment: Pre-emergence herbicidal action against DIGSA; format: in vivo, Digitaria sanguinalis
# Method in brief: as §1
# [13] = system: ABUTH; experiment: Post-emergence herbicidal action against ABUTH; format: in vivo, Abutilon theophrasti; conditions: visual assessment about 3 weeks after treatment vs untreated controls
# Method in brief: (§2)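 Percent herbicidal action is rated by eye about 3 weeks after treatment against untreated controls, where 100% means dead plants and 0% means like controls. Plants in sandy loam are sprayed on green parts at the one-leaf stage with aqueous WP or EC preparations at 600 to 800 l/ha plus 0.2% wetting agent.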
# [14] = system: ALOMY; experiment: Post-emergence herbicidal action against ALOMY; format: in vivo, Alopecurus myosuroides; conditions: dosage 20 g/ha, visual assessment about 3 weeks after treatment vs untreated controls
# Method in brief: as §2
# [15] = system: AMARE; experiment: Post-emergence herbicidal action against AMARE; format: in vivo, Amaranthus retroflexus; conditions: 20 g/ha, visual assessment about 3 weeks after treatment, 100% = plants have died, 0% = like control plants
# Method in brief: as §2
# [16] = system: ECHCG; experiment: Post-emergence herbicidal action against ECHCG; format: in vivo, Echinochloa crus-galli; conditions: dosage 20 g/ha
# Method in brief: as §2
# [17] = system: MATIN; experiment: Post-emergence herbicidal action against MATIN; format: in vivo, Matricaria inodora
# Method in brief: as §2
# [18] = system: PHBPU; experiment: Post-emergence herbicidal action against PHBPU; format: in vivo, Pharbitis purpurea
# Method in brief: as §2
# [19] = system: SETVI; experiment: Post-emergence herbicidal action against SETVI; format: in vivo, Setaria viridis; conditions: Setaria viridis, 504 h
# Method in brief: as §2
# [20] = system: VERPE; experiment: Post-emergence herbicidal action against VERPE; format: in vivo, Veronica persica; conditions: 20 g/ha
# Method in brief: as §2
# [21] = system: VIOTR; experiment: Post-emergence herbicidal action against VIOTR; format: in vivo, Viola tricolor; conditions: Viola tricolor, 504 h
# Method in brief: as §2
# [22] = system: DIGSA; experiment: Post-emergence herbicidal action against DIGSA; format: in vivo, Digitaria sanguinalis
# Method in brief: as §2
# [23] = Tripleurospermum inodorum, 504 h, dosage 20 g/ha
# [24] = 80 g/ha, scored visually after 3 weeks vs untreated controls (100% = plants have died, 0% = like control plants)
smiles,measurement,setting,value
CCNC(=O)c1c(C(F)F)ccc(C(=O)Nc2nnnn2CC)c1CC [Example 2-278],pest or weed control at 80 g/ha,"[1]; Abutilon theophrasti, 504 h, 80 g/ha, scored visually after 3 weeks vs untreated controls (100% = plants have died, 0% = like control plants)",100%
same,pest or weed control at 20 g/ha,"[1]; Abutilon theophrasti, 504 h, dosage 20 g/ha, scored visually after 3 weeks vs untreated controls, 100% = plants have died, 0% = like control plants, read-out: Pre-emergence action against ABUTH (herbicidal activity in percent)",100%
same,pest or weed control at 80 g/ha,"[2]; Alopecurus myosuroides, 504 h, 80 g/ha, scored visually after 3 weeks vs untreated controls (100% = plants have died, 0% = like control plants)",90%
same,pest or weed control at 20 g/ha,"[2]; Alopecurus myosuroides, 504 h, 20 g/ha, scored visually after 3 weeks, 100% = plants have died, 0% = like control plants",80%
same,pest or weed control at 20 g/ha,"[3]; Amaranthus retroflexus, 504 h, 20 g/ha, scored visually after 3 weeks vs untreated controls, 100% = plants have died, 0% = like control plants",100%
same,pest or weed control at 80 g/ha,"[3]; Amaranthus retroflexus, 504 h, 80 g/ha, scored visually after 3 weeks vs untreated controls, 100% = plants have died, 0% = like control plants",100%
same,pest or weed control at 80 g/ha,"[4]; Avena fatua, 504 h",90%
same,pest or weed control at 80 g/ha,"[5]; Echinochloa crus-galli, 504 h",100%
same,pest or weed control at 20 g/ha,[6]; [23],100%
same,pest or weed control at 80 g/ha,"[6]; Tripleurospermum inodorum, 504 h, dosage 80 g/ha",100%
same,pest or weed control at 80 g/ha,"[7]; Ipomoea purpurea, 504 h",90%
same,pest or weed control at 20 g/ha,"[8]; Fallopia convolvulus, 504 h, dosage 20 g/ha",80%
same,pest or weed control at 80 g/ha,"[8]; Fallopia convolvulus, 504 h, dosage 80 g/ha",80%
same,pest or weed control at 80 g/ha,"[9]; Setaria viridis, 504 h, dosage 80 g/ha",100%
same,pest or weed control at 80 g/ha,"[10]; Veronica persica, 504 h, dosage 80 g/ha",100%
same,pest or weed control at 20 g/ha,"[11]; Viola tricolor, 504 h, dosage 20 g/ha",100%
same,pest or weed control at 80 g/ha,"[11]; Viola tricolor, 504 h, dosage 80 g/ha",100%
same,pest or weed control at 20 g/ha,"[12]; Digitaria sanguinalis, 504 h, dosage 20 g/ha",100%
same,pest or weed control at 80 g/ha,"[12]; Digitaria sanguinalis, 504 h, dosage 80 g/ha",100%
same,pest or weed control at 5 g/ha,"[13]; Abutilon theophrasti, 504 h, dosage 5 g/ha",80%
same,pest or weed control at 20 g/ha,"[13]; Abutilon theophrasti, 504 h, dosage 20 g/ha",90%
same,pest or weed control at 20 g/ha,"[14]; Alopecurus myosuroides, 504 h",80%
same,pest or weed control at 20 g/ha,"[15]; Amaranthus retroflexus, 504 h",100%
same,pest or weed control at 20 g/ha,"[16]; Echinochloa crus-galli, 504 h",90%
same,pest or weed control at 5 g/ha,"[17]; Tripleurospermum inodorum, 504 h, dosage 5 g/ha",90%
same,pest or weed control at 20 g/ha,[17]; [23],90%
same,pest or weed control at 5 g/ha,"[18]; Ipomoea purpurea, 504 h, dosage 5 g/ha",80%
same,pest or weed control at 20 g/ha,"[18]; Ipomoea purpurea, 504 h, dosage 20 g/ha",90%
same,pest or weed control at 5 g/ha,[19]; dosage 5 g/ha,80%
same,pest or weed control at 20 g/ha,[19]; dosage 20 g/ha,90%
same,pest or weed control at 20 g/ha,"[20]; Veronica persica, 504 h",100%
same,pest or weed control at 5 g/ha,[21]; 5 g/ha,90%
same,pest or weed control at 20 g/ha,[21]; 20 g/ha,90%
same,pest or weed control at 5 g/ha,"[22]; Digitaria sanguinalis, 504 h, 5 g/ha",90%
same,pest or weed control at 20 g/ha,"[22]; Digitaria sanguinalis, 504 h, 20 g/ha",90%
CC(NC(=O)c1c(C(F)F)ccc(C(=O)Nc2nnnn2C)c1Br)C1CC1 (centres unmarked) [Example 1-340],Pre-emergence action against ABUTH (herbicidal activity),[1]; [24],100%
same,Pre-emergence action against ABUTH (herbicidal activity in percent),"[1]; dosage 20 g/ha, scored visually after 3 weeks vs untreated controls, 100% = plants have died, 0% = like control plants",100%
same,Pre-emergence action against ALOMY (herbicidal activity),[2]; [24],90%
same,Pre-emergence action against AMARE in %,"[3]; 20 g/ha, scored visually after 3 weeks vs untreated controls, 100% = plants have died, 0% = like control plants",100%
same,Pre-emergence action against AMARE in %,[3]; [24],100%
same,Pre-emergence action against AVEFA in %,[4],80%
same,Pre-emergence action against ECHCG in %,[5],100%
same,Pre-emergence action against MATIN in %,[6]; dosage 20 g/ha,100%
same,Pre-emergence action against MATIN in %,[6]; dosage 80 g/ha,100%
same,Pre-emergence action against PHBPU in %,[7],90%
same,Pre-emergence action against POLCO in %,[8]; dosage 80 g/ha,90%
same,Pre-emergence action against SETVI in %,[9]; dosage 20 g/ha,90%
same,Pre-emergence action against SETVI in %,[9]; dosage 80 g/ha,100%
same,Pre-emergence action against VERPE in %,[10]; dosage 20 g/ha,100%
same,Pre-emergence action against VERPE in %,[10]; dosage 80 g/ha,100%
same,Pre-emergence action against VIOTR in %,[11]; dosage 20 g/ha,100%
same,Pre-emergence action against VIOTR in %,[11]; dosage 80 g/ha,100%
same,Pre-emergence action against DIGSA in %,[12]; dosage 20 g/ha,100%
same,Pre-emergence action against DIGSA in %,[12]; dosage 80 g/ha,100%
same,Post-emergence action against ABUTH in %,[13]; dosage 20 g/ha,80%
same,Post-emergence action against ALOMY in %,[14],80%
same,Post-emergence action at 20 g/ha against AMARE in %,[15],90%
same,Post-emergence action against ECHCG in %,[16],90%
same,Post-emergence action against MATIN in %,[17]; dosage 20 g/ha,80%
same,Post-emergence action against PHBPU in %,[18]; dosage 20 g/ha,90%
same,Post-emergence action against VERPE in %,[20],80%
same,Post-emergence action against DIGSA,[22]; 20 g/ha,90%
